Measured values: patent US20230002373A1, “COMPOUNDS AND COMPOSITIONS FOR TREATING CONDITIONS ASSOCIATED WITH STING ACTIVITY” (IFM Due, Inc., priority 2019, published 2023)

Biological target: T1, hSTING (Homo sapiens, UniProt Q86WV6, G230A/H232R/R293Q/R71H)
T1 construct: host or cells: THP1-Dual KO-IFNAR2 cells
Assay: STING reporter assay (luciferase) in THP1-Dual KO-IFNAR2 cells stimulated with 2′3′cGAMP
Format: cell-based
Settings: 15 μM 2′3′cGAMP, 24 h
Protocol: STING pathway activation by the compounds described herein was measured using THP1-Dual™ cells (KO-IFNAR2).
THP1-Dual™ KO-IFNAR2 Cells (obtained from invivogen) were maintained in RPMI, 10% FCS, 5 ml P/S, 2 mM L-glut, 10 mM Hepes, and 1 mM sodium pyruvate. Compounds were spotted in empty 384 well tissue culture plates (Greiner 781182) by Echo for a final concentration of 0.0017-100 μM. Cells were plated into the TC plates […], 2×10E6 cells/mL. For activation with STING ligand, 2′3′cGAMP (MW 718.38, obtained from Invivogen), was prepared in Optimem media.
The following solutions were prepared for each 1×384 plate: • Solution A: 2 mL Optimem with one of the following stimuli: • 60 μL of 10 mM 2′3′cGAMP->150 μM stock • Solution B: 2 mL Optimem with 60 μL Lipofectamine 2000->Incubate 5 min at RT
2 mL of solution A and 2 ml Solution B was mixed and incubated for 20 min at room temperature (RT). 20 uL of transfection solution (A+B) was added on top of the plated cells, with a final 2′3′cGAMP concentration of 15 μM. The plates were then centrifuged immediately at 340 g for 1 minute, after which they were incubated at 37° C., 5% CO2, >98% humidity for 24 h. Luciferase reporter activity was then measured. EC50 values were calculated by using standard methods known in the art.
Luciferase reporter assay: 10 μL of supernatant from the assay was transferred to white 384-plate with flat bottom and squared wells. One pouch of QUANTI-Luc™ Plus was dissolved in 25 mL of water. 100 μL of QLC Stabilizer per 25 mL of QUANTI-Luc™ Plus solution was added. 50 μL of QUANTI-Luc™ Plus/QLC solution per well was then added. Luminescence was measured on a Platereader (e.g., Spectramax I3X (Molecular Devices GF3637001)).
Luciferase reporter activity was then measured. EC50 values were calculated by using standard methods known in the art.

T1 sequence (Q86WV6 whole entry R71H/G230A/H232R/R293Q): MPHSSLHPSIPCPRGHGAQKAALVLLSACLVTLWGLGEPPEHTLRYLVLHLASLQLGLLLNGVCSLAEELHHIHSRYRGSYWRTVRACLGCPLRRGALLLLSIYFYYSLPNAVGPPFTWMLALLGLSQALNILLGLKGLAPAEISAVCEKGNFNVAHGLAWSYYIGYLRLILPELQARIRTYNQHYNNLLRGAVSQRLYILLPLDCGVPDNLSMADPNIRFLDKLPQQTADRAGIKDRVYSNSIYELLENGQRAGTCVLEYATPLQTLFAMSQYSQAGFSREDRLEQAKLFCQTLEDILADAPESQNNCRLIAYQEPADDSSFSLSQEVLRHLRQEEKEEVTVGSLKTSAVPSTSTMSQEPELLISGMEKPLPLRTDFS

| SMILES | EC50 (numeric bounds) [µM] | EC50 (class symbols) [µM] |
| --- | --- | --- |
| O=C(Nc1cnc2c(c1)CCCC2)C(=O)Nc1c[nH]c2cccnc12 [Compound 108, N^1-(1H-pyrrolo[3,2-b]pyridin-3-yl)-N^2-(5,6,7,8-tetrahydro-quinolin-3-yl)oxalamide] | > 100 |  |
| O=C(NCC1(c2cccc(Cl)c2)CC1)C(=O)Nc1c[nH]c2ccncc12 [Compound 129] |  | 5 to 100 |
| COc1ccc(CNC(=O)C(=O)Nc2c[nH]c3ccncc23)cc1Cl [Compound 168, N1-(3-chloro-4-methoxybenzyl)-N2-(1H-pyrrolo[3,2-c]pyridin-3-yl)oxalamide] | > 30 |  |

The remaining lines, values ahead:

| EC50 (numeric bounds) [µM] | EC50 (class symbols) [µM] | SMILES |
| --- | --- | --- |
| > 30 |  | O=C(NCCC1(C(F)(F)F)CC1)C(=O)Nc1c[nH]c2ccncc12 [Compound 161, N1-(1H-pyrrolo[3,2-c]pyridin-3-yl)-N2-(2-(1-(trifluoromethyl)-cyclopropyl)-ethyl)oxalamide] |
|  | 0.2 to 1 | O=C(NCc1ccc(Cl)c(C(F)(F)F)c1)C(=O)Nc1c[nH]c2ccncc12 [Compound 171, N1-(4-chloro-3-(trifluoromethyl)-benzyl)-N2-(1H-pyrrolo[3,2-c]pyridin-3-yl)oxalamide] |
|  | 0.2 to 1 | Cc1ccc(CNC(=O)C(=O)Nc2c[nH]c3cc(F)cnc23)cc1C(F)(F)F [Compound 174] |
